Patent publication US11306117B2, “Whitening composition containing novel quercetin-based compound” (AMOREPACIFIC CORPORATION, priority 2017, dated 2022)

Experiments:
mushroom tyrosinase = experiment: Inhibition of tyrosinase activity; assay type: biochemical; details: L-tyrosine, 37° C., 20 minutes, absorbance 490 nm
Description: The effect of New Materials 31 and 32 on inhibiting tyrosinase activity was evaluated.
Specifically, tyrosinase and tyrosine derived from mushroom were obtained from Sigma Chemical. Together with 150 μl of 0.1 M phosphate buffer (pH 6.5), 8 μl of mushroom tyrosinase (2,100 unit/ml) and 0.05 M concentration of L-tyrosine, arbutin and New Materials 31 and 32 were treated at the concentrations of following Table 3, respectively. The tyrosinase activity was evaluated by performing the enzyme reaction at 37° C. for 20 minutes and then measuring absorbance at 490 nm using a microplate reader (Bio-Rad 3550, Richmond, Calif., U.S.A.).

healthy adult examinees = experiment: HRIPT (Human repeated insult patch tests), skin accumulated stimulus; assay type: in vivo; parameters: key to skin reactivity (ICDRG criteria): −: negative (no response); ±: doubtful or slight erythema, etc.; +: weak reaction (which is accompanied with no phlyctenule), erythema, papule; ++: severe reaction (which is accompanied with phylctenule), erythema, papule, phlyctenule; +++: strong reaction, bullae reaction; details: for average reactivity: 9 patches, 15 examinees; for Number of examinees who exhibited ±, +, or ++ reactivity 1st: 1st patch; for Number of examinees who exhibited ±, +, or ++ reactivity 2nd: 2nd patch; for Number of examinees who exhibited ±, +, or ++ reactivity 3rd: 3rd patch; for Number of examinees who exhibited ±, +, or ++ reactivity 4th: 4th patch; for Number of examinees who exhibited ±, +, or ++ reactivity 5th: 5th patch; for Number of examinees who exhibited ±, +, or ++ reactivity 6th: 6th patch; for Number of examinees who exhibited ±, +, or ++ reactivity 7th: 7th patch; for Number of examinees who exhibited ±, +, or ++ reactivity 8th: 8th patch; for Number of examinees who exhibited ±, +, or ++ reactivity 9th: 9th patch
Description: HRIPT (Human repeated insult patch tests) was conducted in order to identify skin accumulated stimulus of quercetin3-O-[3-O″-(E)-p-coumaroyl][β-D-glucopyranosyl-(1→3)-O-α-L-rhamnopyranosyl-(1→6)-O-β-D-glucopyranoside] and quercetin3-O-[3-O″-(E)-p-coumaroyl][α-L-rhamnopyranosyl-(1→6)-O-β-D-glucopyranoside]and to calculate the concentration range that can be used in skin.
Specifically, 15 healthy adult examinees were randomly selected, and test compositions in which the compounds were respectively comprised in an amount of 0.5 wt. %, 1 wt. %, and 3 wt. % (the compositions for skin, comprising an emulsifying agent, a stabilizer, purified water, etc. in addition to the compounds) were dropped in the amount of 20 μl per chamber (IQ chamber, Epitest Ltd, Finland), and patched on the right site of the upper back of the examinees, and then, after 24 hours, the patch was replaced with a new patch. A total of 9 patches were conducted, three times a week for total 3 weeks, in such manner, the skin reactions before and after patch were examined every time, and the skin reactions until 48 hours after removing the final patch were observed, and the average reactivity was observed.
The skin reaction was determined according to the criteria of International Contact Dermatitis Research Group (ICDRG). In the above table, “New Material 31” refers to quercetin3-O-[3-O″-(E)-p-coumaroyl][β-D-glucopyranosyl-(1→3)-O-α-L-rhamnopyranosyl-(1→6)-O-β-D-glucopyranoside], and “New Material 32” refers to quercetin3-O-[3-O″-(E)-p-coumaroyl][α-L-rhamnopyranosyl-(1→6)-O-β-D-glucopyranoside].

## C[C@@H]1O[C@@H](OC[C@H]2O[C@@H](Oc3c(-c4ccc(O)c(O)c4)oc4cc(O)cc(O)c4c3=O)[C@H](O)[C@@H](OC(=O)/C=C/c3ccc(O)cc3)[C@@H]2O)[C@H](O)[C@H](O[C@@H]2O[C@H](CO)[C@@H](O)[C@H](O)[C@H]2O)[C@H]1O [New Material 31, quercetin3-O-[3-O″-(E)-p-coumaroyl][β-D-glucopyranosyl-(1→3)-O-α-L-rhamnopyranosyl-(1→6)-O-β-D-glucopyranoside]]
Mushroom tyrosinase
  IC50 inhibiting tyrosinase activity: 16 ppm
Healthy adult examinees; 0.5 wt.% in test composition
  average reactivity: 0
Healthy adult examinees; 0.5 wt.%, 1 wt.% and 3 wt.%, 9 patches in 3 weeks
  skin reactivity (ICDRG criteria): −
Healthy adult examinees; 0.5 wt.%, line 1 of 3 (±)
  Number of examinees who exhibited ±, +, or ++ reactivity 1st: 0 number
  Number of examinees who exhibited ±, +, or ++ reactivity 2nd: 0 number
  Number of examinees who exhibited ±, +, or ++ reactivity 3rd: 0 number
  Number of examinees who exhibited ±, +, or ++ reactivity 4th: 0 number
  Number of examinees who exhibited ±, +, or ++ reactivity 5th: 0 number
  Number of examinees who exhibited ±, +, or ++ reactivity 6th: 0 number
  Number of examinees who exhibited ±, +, or ++ reactivity 7th: 0 number
  Number of examinees who exhibited ±, +, or ++ reactivity 8th: 0 number
  Number of examinees who exhibited ±, +, or ++ reactivity 9th: 0 number
Healthy adult examinees; 0.5 wt.%, line 2 of 3 (+)
  Number of examinees who exhibited ±, +, or ++ reactivity 1st: 0 number
  Number of examinees who exhibited ±, +, or ++ reactivity 2nd: 0 number
  Number of examinees who exhibited ±, +, or ++ reactivity 3rd: 0 number
  Number of examinees who exhibited ±, +, or ++ reactivity 4th: 0 number
  Number of examinees who exhibited ±, +, or ++ reactivity 5th: 0 number
  Number of examinees who exhibited ±, +, or ++ reactivity 6th: 0 number
  Number of examinees who exhibited ±, +, or ++ reactivity 7th: 0 number
  Number of examinees who exhibited ±, +, or ++ reactivity 8th: 0 number
  Number of examinees who exhibited ±, +, or ++ reactivity 9th: 0 number
Healthy adult examinees; 0.5 wt.%, line 3 of 3 (++)
  Number of examinees who exhibited ±, +, or ++ reactivity 1st: 0 number
  Number of examinees who exhibited ±, +, or ++ reactivity 2nd: 0 number
  Number of examinees who exhibited ±, +, or ++ reactivity 3rd: 0 number
  Number of examinees who exhibited ±, +, or ++ reactivity 4th: 0 number
  Number of examinees who exhibited ±, +, or ++ reactivity 5th: 0 number
  Number of examinees who exhibited ±, +, or ++ reactivity 6th: 0 number
  Number of examinees who exhibited ±, +, or ++ reactivity 7th: 0 number
  Number of examinees who exhibited ±, +, or ++ reactivity 8th: 0 number
  Number of examinees who exhibited ±, +, or ++ reactivity 9th: 0 number
Healthy adult examinees; 1 wt.% in test composition
  average reactivity: 0
Healthy adult examinees; 1 wt.%, line 1 of 3 (±)
  Number of examinees who exhibited ±, +, or ++ reactivity 1st: 0 number
  Number of examinees who exhibited ±, +, or ++ reactivity 2nd: 0 number
  Number of examinees who exhibited ±, +, or ++ reactivity 3rd: 0 number
  Number of examinees who exhibited ±, +, or ++ reactivity 4th: 0 number
  Number of examinees who exhibited ±, +, or ++ reactivity 5th: 0 number
  Number of examinees who exhibited ±, +, or ++ reactivity 6th: 0 number
  Number of examinees who exhibited ±, +, or ++ reactivity 7th: 0 number
  Number of examinees who exhibited ±, +, or ++ reactivity 8th: 0 number
  Number of examinees who exhibited ±, +, or ++ reactivity 9th: 0 number
Healthy adult examinees; 1 wt.%, line 2 of 3 (+)
  Number of examinees who exhibited ±, +, or ++ reactivity 1st: 0 number
  Number of examinees who exhibited ±, +, or ++ reactivity 2nd: 0 number
  Number of examinees who exhibited ±, +, or ++ reactivity 3rd: 0 number
  Number of examinees who exhibited ±, +, or ++ reactivity 4th: 0 number
  Number of examinees who exhibited ±, +, or ++ reactivity 5th: 0 number
  Number of examinees who exhibited ±, +, or ++ reactivity 6th: 0 number
  Number of examinees who exhibited ±, +, or ++ reactivity 7th: 0 number
  Number of examinees who exhibited ±, +, or ++ reactivity 8th: 0 number
  Number of examinees who exhibited ±, +, or ++ reactivity 9th: 0 number
Healthy adult examinees; 1 wt.%, line 3 of 3 (++)
  Number of examinees who exhibited ±, +, or ++ reactivity 1st: 0 number
  Number of examinees who exhibited ±, +, or ++ reactivity 2nd: 0 number
  Number of examinees who exhibited ±, +, or ++ reactivity 3rd: 0 number
  Number of examinees who exhibited ±, +, or ++ reactivity 4th: 0 number
  Number of examinees who exhibited ±, +, or ++ reactivity 5th: 0 number
  Number of examinees who exhibited ±, +, or ++ reactivity 6th: 0 number
  Number of examinees who exhibited ±, +, or ++ reactivity 7th: 0 number
  Number of examinees who exhibited ±, +, or ++ reactivity 8th: 0 number
  Number of examinees who exhibited ±, +, or ++ reactivity 9th: 0 number
Healthy adult examinees; 3 wt.% in test composition
  average reactivity: 0
Healthy adult examinees; 3 wt.%, line 1 of 3 (±)
  Number of examinees who exhibited ±, +, or ++ reactivity 1st: 0 number
  Number of examinees who exhibited ±, +, or ++ reactivity 2nd: 0 number
  Number of examinees who exhibited ±, +, or ++ reactivity 3rd: 0 number
  Number of examinees who exhibited ±, +, or ++ reactivity 4th: 0 number
  Number of examinees who exhibited ±, +, or ++ reactivity 5th: 0 number
  Number of examinees who exhibited ±, +, or ++ reactivity 6th: 0 number
  Number of examinees who exhibited ±, +, or ++ reactivity 7th: 0 number
  Number of examinees who exhibited ±, +, or ++ reactivity 8th: 0 number
  Number of examinees who exhibited ±, +, or ++ reactivity 9th: 0 number
Healthy adult examinees; 3 wt.%, line 2 of 3 (+)
  Number of examinees who exhibited ±, +, or ++ reactivity 1st: 0 number
  Number of examinees who exhibited ±, +, or ++ reactivity 2nd: 0 number
  Number of examinees who exhibited ±, +, or ++ reactivity 3rd: 0 number
  Number of examinees who exhibited ±, +, or ++ reactivity 4th: 0 number
  Number of examinees who exhibited ±, +, or ++ reactivity 5th: 0 number
  Number of examinees who exhibited ±, +, or ++ reactivity 6th: 0 number
  Number of examinees who exhibited ±, +, or ++ reactivity 7th: 0 number
  Number of examinees who exhibited ±, +, or ++ reactivity 8th: 0 number
  Number of examinees who exhibited ±, +, or ++ reactivity 9th: 0 number
Healthy adult examinees; 3 wt.%, line 3 of 3 (++)
  Number of examinees who exhibited ±, +, or ++ reactivity 1st: 0 number
  Number of examinees who exhibited ±, +, or ++ reactivity 2nd: 0 number
  Number of examinees who exhibited ±, +, or ++ reactivity 3rd: 0 number
  Number of examinees who exhibited ±, +, or ++ reactivity 4th: 0 number
  Number of examinees who exhibited ±, +, or ++ reactivity 5th: 0 number
  Number of examinees who exhibited ±, +, or ++ reactivity 6th: 0 number
  Number of examinees who exhibited ±, +, or ++ reactivity 7th: 0 number
  Number of examinees who exhibited ±, +, or ++ reactivity 8th: 0 number
  Number of examinees who exhibited ±, +, or ++ reactivity 9th: 0 number
